Laboratory results as given in PubChem BioAssay (NCI).
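Tested at 5 concentrations; 48 h exposure; 96-well plates; endpoints linearly interpolated, else capped at highest concentration. Here, GI50 denotes the concentration required for 50% inhibition of growth. TGI: concentration producing complete growth inhibition.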

Legend:
Assay in all cases: NCI-60 cell line screen, 48 h
786-0 renal = test system: 786-0 renal
A549 NSCLC = test system: A549 NSCLC
ACHN renal = test system: ACHN renal
BT-549 breast = test system: BT-549 breast
HCT-116 colon = test system: HCT-116 colon
HT29 colon = test system: HT29 colon
NCI-H23 lung = test system: NCI-H23 lung
OVCAR-8 ovarian = test system: OVCAR-8 ovarian
SNB-19 CNS = test system: SNB-19 CNS
UACC-257 melanoma = test system: UACC-257 melanoma

SMILES | GI50 (786-0 renal) [µM] | TGI (786-0 renal) [µM] | GI50 (A549 NSCLC) [µM] | TGI (A549 NSCLC) [µM] | GI50 (ACHN renal) [µM] | TGI (ACHN renal) [µM] | GI50 (BT-549 breast) [µM] | TGI (BT-549 breast) [µM] | GI50 (HCT-116 colon) [µM] | TGI (HCT-116 colon) [µM] | GI50 (HT29 colon) [µM] | TGI (HT29 colon) [µM] | GI50 (NCI-H23 lung) [µM] | TGI (NCI-H23 lung) [µM] | GI50 (OVCAR-8 ovarian) [µM] | TGI (OVCAR-8 ovarian) [µM] | GI50 (SNB-19 CNS) [µM] | TGI (SNB-19 CNS) [µM] | GI50 (UACC-257 melanoma) [µM] | TGI (UACC-257 melanoma) [µM]
Cc1ccccc1C(C(=O)NC1CCCCC1)N(C(=O)Cn1ccnc1C)c1cccc(F)c1 (centres undefined) | 37.2 | > 100 | > 100 | > 100 | > 58.7 | > 100 | > 52.6 | > 100 | 46.2 | > 100 | > 100 | > 100 | > 58 | > 100 | > 82.6 | > 100 | 57 | > 100 | > 100 | > 100
COc1ccc(-c2csc3c2-n2cccc2C3=O)cc1O | 0.0977 | 25.2 | 0.112 | > 91.5 | < 0.0489 | > 100 | 0.0197 | > 100 | 0.0271 | 17 | 3.68 | > 78.1 | 0.056 | > 42.4 | 0.0281 | > 100 | 3.44 | > 100 | 1.36 | > 100
CC1(C)Cc2c(Br)c(Br)c(Br)c(OCC(O)CN3CCOCC3)c2O1 (centres undefined) | 13 | 28.6 | 12.9 | 28.4 | 15.1 | 28.7 | 10.5 | 22.3 | 15.4 | 45.2 | 3.73 | 19 | 13.5 | 27.6 | 11.3 | 35.4 | 13.4 | 26.4 | 19.1 | 37.8
COC(=O)[C@@H]1CCCN1C(=O)[C@H]1CCCN1C(=O)[C@@H](Cc1c[nH]c2ccccc12)NC(=S)Nc1cc(C(F)(F)F)cc(C(F)(F)F)c1 | 7.5 | 20.2 | 2.19 | 5.54 | 2.97 | 11 | 3.52 | 11.3 | 1.96 | 4.14 | 1.97 | 3.84 | 3.13 | 11.4 | 2.55 | 6.4 | 3.78 | 14.4 | 2.5 | 6.99
O=C(CCCn1ccnc1[N+](=O)[O-])NCCn1ccnc1[N+](=O)[O-] |  | > 100 |  | > 100 |  | > 100 |  | > 100 |  | > 100 |  | > 100 |  | > 100 |  | > 100 |  | > 100 |  | > 100
COc1ccc2[nH]cc(-c3nc(-c4c[nH]c5ccncc45)cs3)c2c1 | 1.84 | 3.41 | 2.35 | 9.5 | 1.66 | 3.14 | 8.96 | 21.3 | 1.77 | 3.33 | 2.23 | 4.87 | 1.76 | 3.85 | 2.37 | 6.05 | 1.97 | 3.8 | 1.93 | 3.51
O=C1C=CC(=O)c2c1ncc1c2nc2sccn21 | 15.5 | 36.3 | 52.4 | > 100 | 21.7 | 39.6 | 12.4 | 27.7 | 12.5 | 37.8 | 37.6 | > 100 | 22.2 | 83.7 | 30.5 | > 100 | 63.8 | > 100 | 20.2 | 37.2
COc1ccc(-c2ccccc2)cc1-c1c(Nc2cc(Cl)cc(Cl)c2O)c(=O)c1=O | 1.84 | > 50 | 1.65 | > 50 | 1.5 | > 50 | 1.41 | 4.59 | 1.58 | > 50 | 1.92 | > 50 | 1.38 | > 50 | 1.84 | > 50 | 1.84 | > 50 | 1.44 | 4.77
O=C(/C=C\c1ccc2ccccc2n1)c1cc(Cl)ccc1O | 4.28 | 14.6 | 57.9 | > 100 | 8.32 | 21.4 | 4.82 | 17 | 3.38 | 11.3 | 4.2 | 31.5 | 5.9 | 19.7 | 3.16 | 14.7 | 10.1 | 24.5 | 24.3 | 63.2
CC[C@@]1(O)C(=O)OCc2c1cc1n(c2=O)Cc2cc3c(NC(=O)CN)cccc3nc2-1 |  | 3 |  | > 48.5 |  | 1.02 |  | > 100 |  | > 56.1 |  | > 100 |  | 4.26 |  | > 43.8 |  | > 100 |  | 13.2
COc1ccc(C2=C(c3cc(OC)c(OC)c(OC)c3)C(=O)OC2)cc1OC | 0.0522 | > 62.3 | 0.25 | > 29.1 | 67.5 | > 100 | 12.1 | 97.9 | 0.0548 | 55.5 | 0.0256 | > 24.3 | 0.0251 | 13.4 | 0.163 |  | 0.891 | > 100 | > 38.6 | > 81.1
C=C(C)[C@@H]1CC[C@]2(C(=O)NCCNCCNCCN)CC[C@]3(C)[C@H](CC[C@@H]4[C@@]5(C)CCC(=O)C(C)(C)[C@@H]5CC[C@]43C)[C@@H]12 | 7.8 | 15.8 | 7.69 | 15.9 | 13.8 | > 50 | 8.91 | 22.2 | 6.65 | 14.9 | 7.17 | 14.6 | 9.14 | 17.4 | 8.41 | 16.2 | 8.5 | 18.1 | 7.91 | 18.3
CC(C)=CC1CC(C)C2(CCC3(C)CC4C(C(=O)CC4(C)O)/C(C=O)=C\CC32)O1 (centres undefined) |  | 0.0438 |  | 0.215 |  | 0.115 |  | 0.351 |  | 0.15 |  | 0.102 |  | 0.264 |  | 0.214 |  | 0.607 |  | 0.28
